Data published in patent US9096599B2, “Spiroindoline compounds” (Intervet Inc., priority 2011, dated 2015).
Read-outs that look alike come from different tables or passages of the source.

Tested on: Ascaridia galli (L3) and Oesophagostumum dentatum (L3 and L4) larvae
Test: In vitro anthelmintic larval test, minimum effective concentration by microscopic examination
Type: cell-based
Settings: read-out: minimum effective concentration (MEC)
Protocol: C: Biological Examples Efficacy Against Ascaridia galli and Oesophagostomum dentatum
Anthelmintic effects of compounds of this invention (numbers refer to compound numbers in Table I) were tested in vitro using gut-welling larval stages of two parasitic nematode species: Ascaridia galli (intestinal roundworm of chicken), larval stage 3 (“L3”); and Oesophagostumum dentatum (nodular worm of swine), larval stages 3 and 4 (respectively “L3” and “L4”). When conducting these experiments, DMSO-solutions of various concentrations of compounds of this invention were prepared and incubated in 96-well microtiter plates. The parasites were then distributed at 20 larvae per well. The anthelmintic effects were classified by microscopic examination. The microscopic examination included assessing mortality, damage, motility, progression of development, and neutral red uptake by the larvae in comparison to a DMSO-control.

[1] = activity against one or both of the nematodes (A. galli L3; O. dentatum L3, L4), 96-well plates, 20 larvae per well, vs DMSO-control

Q: O=C(c1ccnc(Cl)c1)N1CC2(CCN(C/C=C/c3ccc(Cl)cc3Cl)CC2)c2cc(Sc3ccc(F)cc3)ccc21 [Compound 29, (2-chloro-4-pyridyl)-[1′-[(E)-3-(2,4-dichlorophenyl)allyl]-5-(4-fluorophenyl)sulfanyl-spiro[indoline-3,4′-piperidine]-1-yl]methanone] was tested. Which minimal effective concentration [1] did it give?
A: ≤ 50 µM

Q: Cc1cc(C(=O)N2CC3(CCN(C/C=C/c4ccc(Cl)cc4)CC3)c3cc(Sc4ccc(F)cc4)ccc32)cc(Cl)n1 [Compound 27, (2-chloro-6-methyl-4-pyridyl)-[1′-[(E)-3-(4-chlorophenyl)allyl]-5-(4-fluorophenyl)sulfanyl-spiro[indoline-3,4′-piperidine]-1-yl]methanone] was tested. Which minimal effective concentration [1] did it give?
A: ≤ 50 µM

Q: Which minimal effective concentration [1] does the source give for O=C(c1ccnc(Cl)c1)N1CC2(CCN(C/C=C/c3ccc(F)c(F)c3)CC2)c2cc(Sc3ccc(F)cc3)ccc21 [Compound 32, (2-chloro-4-pyridyl)-[1′-[(E)-3-(3,4-difluorophenyl)allyl]-5-(4-fluorophenyl)sulfanyl-spiro[indoline-3,4′-piperidine]-1-yl]methanone] here?
A: ≤ 50 µM

Q: With Cc1cc(C(=O)N2CC3(CCN(C/C=C/c4ccccc4)CC3)c3cc(Sc4ccc(F)cc4)ccc32)cc(Cl)n1 [Compound 12, (2-chloro-6-methyl-4-pyridyl)-[1′-[(E) -cinnamyl]-5-(4-fluorophenyl)sulfanyl-spiro[indoline-3,4′-piperidine]-1-yl]methanone] as the compound, how does the minimal effective concentration read?
A: ≤ 50 µM

Q: How did the minimal effective concentration [1] turn out when Cc1ccc(/C=C/CN2CCC3(CC2)CN(C(=O)c2ccnc(C)c2)c2ccc(Sc4ccc(F)cc4)cc23)cc1 [Compound 19, [5-(4-fluorophenyl)sulfanyl-1′-[(E)-3-(p-tolyl)allyl]spiro[indoline-3,4′-piperidine]-1-yl]-(2-methyl-4-pyridyl)methanone] was run?
A: ≤ 50 µM

Q: With Cc1ccc(/C=C/CN2CCC3(CC2)CN(C(=O)c2ccnc(C)c2)c2ccc(Sc4ccc(F)cc4)cc23)c(C)c1 [Compound 22, [1′-[(E)-3-(2,4-dimethylphenyl)allyl]-5-(4-fluorophenyl)sulfanyl-spiro[indoline-3,4′-piperidine]-1-yl]-(2-methyl-4-pyridyl)methanone] as the compound, how does the minimal effective concentration [1] read?
A: ≤ 50 µM

Q: How did the minimal effective concentration [1] turn out when Cc1cc(C(=O)N2CC3(CCN(C/C=C/c4ccc(F)cc4)CC3)c3cc(Sc4ccc(F)cc4)ccc32)ccn1 [Compound 37, [1′-[(E)-3-(4-fluorophenyl)allyl]-5-(4-fluorophenyl)sulfanyl-spiro[indoline-3,4′-piperidine]-1-yl]-(2-methyl-4-pyridyl)methanone] was run?
A: ≤ 50 µM

Q: With O=C(c1ccnc(Cl)c1)N1CC2(CCN(C/C=C/c3ccc(F)cc3F)CC2)c2cc(Sc3ccc(F)cc3)ccc21 [Compound 38, (2-chloro-4-pyridyl)-[1′-[(E)-3-(2,4-difluorophenyl)allyl]-5-(4-fluorophenyl)sulfanyl-spiro[indoline-3,4′-piperidine]-1-yl]methanone] as the compound, how does the minimal effective concentration [1] read?
A: ≤ 50 µM

Q: For Cc1cc(C(=O)N2CC3(CCN(C/C=C/c4ccc(C)c(C)c4)CC3)c3cc(Sc4ccc(F)cc4)ccc32)cc(Cl)n1 [Compound 15, (2-chloro-6-methyl-4-pyridyl)-[1′-[(E)-3-(3,4-dimethylphenyl)allyl]-5-(4-fluorophenyl)sulfanyl-spiro[indoline-3,4′-piperidine]-1-yl]methanone], which minimal effective concentration [1] is on record?
A: ≤ 50 µM

Q: How did the minimal effective concentration [1] turn out when Cc1cc(C(=O)N2CC3(CCN(C/C=C/c4ccc(Cl)cc4Cl)CC3)c3cc(Sc4ccc(F)cc4)ccc32)ccn1 [Compound 31, [1′-[(E)-3-(2,4-dichlorophenyl)allyl]-5-(4-fluorophenyl)sulfanyl-spiro[indoline-3,4′-piperidine]-1-yl]-(2-methyl-4-pyridyl)methanone] was run?
A: ≤ 50 µM
